The values that follow come from patent US10004701B2, “Methods and compositions for treating infection” (UNIVERSITY OF ROCHESTER, priority 2012, dated 2018).

Counter-ions that a name gives are not always drawn. Like-named read-outs stand apart in the source and are kept apart here.

Holding throughout (assay): AK assay 384-well format, Prestwick library screening
Experiment [1] has as its system A. baumannii strain 98-37-09. The experiment is classed as cell-based, Acinetobacter baumannii. Particulars: for fold induction at 50 µM: Acinetobacter baumannii, 983709, 3 h.
The next experiment concerns E. coli. Type of experiment: cell-based, Escherichia coli. The note with it: for fold induction at 50 µM: Escherichia coli, 3 h.
The subject of another experiment is K. pneumoniae. Type of experiment: cell-based, Klebsiella pneumoniae. The note with it: for fold induction at 50 µM: Klebsiella pneumoniae, 3 h.
A further experiment concerns P. aeruginosa. Type of experiment: cell-based, Pseudomonas aeruginosa. The note with it: for fold induction at 50 µM: Pseudomonas aeruginosa, 3 h.
For another experiment, the system named is E. faecium. Type of experiment: cell-based, Enterococcus faecium. The note with it: for fold induction at 50 µM: Enterococcus faecium, 3 h.
The subject of experiment [2] is S. aureus strain USA300-0114. Type of experiment: cell-based, Staphylococcus aureus. The note with it: for fold induction at 50 µM: Staphylococcus aureus, USA300, 3 h.
The next experiment concerns E. cloacae. The experiment is classed as cell-based, Enterobacter cloacae. The note with it: for fold induction at 50 µM: Enterobacter cloacae, 3 h.
[3] abbreviates: 50 μM final drug concentration, cutoff for positive-scoring molecules 3-fold increase, read-out: AK-based Prestwick Library Screening Results, A. baumannii (fold increase in extracellular AK activity).
[4] abbreviates: 50 μM final drug concentration, cutoff for positive-scoring molecules 3-fold increase, read-out: AK-based Prestwick Library Screening Results, E. coli (fold increase in extracellular AK activity).
Setting [5] is: 50 μM final drug concentration, cutoff for positive-scoring molecules 3-fold increase, read-out: AK-based Prestwick Library Screening Results, K. pneumoniae (fold increase in extracellular AK activity).
Setting [6] is: 50 μM final drug concentration, cutoff for positive-scoring molecules 3-fold increase, read-out: AK-based Prestwick Library Screening Results, P. aeruginosa (fold increase in extracellular AK activity).
Setting [7] is: 50 μM final drug concentration, cutoff for positive-scoring molecules 3-fold increase, read-out: AK-based Prestwick Library Screening Results, E. faecium (fold increase in extracellular AK activity).
The mark [8] stands for this setting: 50 μM final drug concentration, cutoff for positive-scoring molecules 3-fold increase, read-out: AK-based Prestwick Library Screening Results, S. aureus (fold increase in extracellular AK activity).
Where [9] appears, read: 50 μM final drug concentration, cutoff for positive-scoring molecules 3-fold increase, read-out: AK-based Prestwick Library Screening Results, E. cloacae (fold increase in extracellular AK activity).
[10] abbreviates: 50 μM final drug concentration, planktonic, cutoff for positive 3-fold increase.

As for `CC(=O)[C@H]1CC[C@H]2[C@@H]3CC[C@H]4C[C@H](O)CC[C@]4(C)[C@H]3C(=O)C[C@]12C` [Alfaxalone], the fold induction at 50 µM amounted to 1 in experiment [1] (read-out: AK-based Prestwick library screening result, A. baumannii (fold increase in extracellular AK activity)); 1.2 with E. coli (read-out: AK-based Prestwick library screening result, E. coli (fold increase in extracellular AK activity)); 1 in the experiment on K. pneumoniae (read-out: AK-based Prestwick library screening result, K. pneumoniae (fold increase in extracellular AK activity)); 1.2 with P. aeruginosa (read-out: AK-based Prestwick library screening result, P. aeruginosa (fold increase in extracellular AK activity)); 1.1 with E. faecium (read-out: AK-based Prestwick library screening result, E. faecium (fold increase in extracellular AK activity)); 1.2 in experiment [2] (read-out: AK-based Prestwick library screening result, S. aureus (fold increase in extracellular AK activity)). For the same compound, the fold induction at 50 µM in the experiment on E. cloacae (read-out: AK-based Prestwick library screening result, E. cloacae (fold increase in extracellular AK activity)) stood at 1.7.

Turning to `COC1=CC(=O)O[C@@H](/C=C/c2ccccc2)C1` [Kawain], the fold induction at 50 µM in experiment [1] (planktonic A. baumannii, 50 μM final drug concentration, 384-well, […], read-out: AK-based Prestwick Library Screening Results: A. baumannii (increase in extracellular AK activity)) was 1.2; in the experiment with E. coli (planktonic E. coli, 50 μM final drug concentration, 384-well, […], read-out: AK-based Prestwick Library Screening Results: E. coli (increase in extracellular AK activity)), 1.1; in the experiment on K. pneumoniae (planktonic K. pneumoniae, 50 μM final drug concentration, 384-well, […], read-out: AK-based Prestwick Library Screening Results: K. pneumoniae (increase in extracellular AK activity)), 1; in the experiment with P. aeruginosa (planktonic P. aeruginosa, 50 μM final drug concentration, 384-well, […], read-out: AK-based Prestwick Library Screening Results: P. aeruginosa (increase in extracellular AK activity)), 1; in the experiment on E. faecium (planktonic E. faecium, 50 μM final drug concentration, 384-well, […], read-out: AK-based Prestwick Library Screening Results: E. faecium (increase in extracellular AK activity)), 1.1; in experiment [2] (planktonic S. aureus, 50 μM final drug concentration, 384-well, […], read-out: AK-based Prestwick Library Screening Results: S. aureus (increase in extracellular AK activity)), 1. Besides, in the experiment with E. cloacae (planktonic E. cloacae, 50 μM final drug concentration, 384-well, […], read-out: AK-based Prestwick Library Screening Results: E. cloacae (increase in extracellular AK activity)), the fold induction at 50 µM amounted to 1.4.

Take `CCC(Cc1c(I)cc(I)c(N)c1I)C(=O)O` (centres unmarked) [Iopanoic acid]: the fold induction at 50 µM in experiment [1] (setting [3]) worked out at 0.6; in the experiment on E. coli (setting [4]), 0.6; in the experiment with K. pneumoniae (setting [5]), 0.6; in the experiment with P. aeruginosa (setting [6]), 0.6; in the experiment on E. faecium (setting [7]), 0.9; in experiment [2] (setting [8]), 0.4. Also, the fold induction at 50 µM with E. cloacae (setting [9]) came out at 9.6.

Regarding `NC[C@H]1O[C@H](O[C@H]2[C@H](O)[C@@H](O[C@H]3O[C@H](CO)[C@@H](O)[C@H](N)[C@H]3O)[C@H](N)C[C@@H]2N)[C@H](O)[C@@H](O)[C@@H]1O.O=S(=O)(O)O` [Kanamycin A sulfate], the “AK-based Prestwick Library Screening Results, A. baumannii (fold increase in extracellular AK activity)” value in experiment [1] (setting [10]) is on record as 1.1. For the same compound, in the experiment on E. coli (setting [10]), the “AK-based Prestwick Library Screening Results, E. coli (fold increase in extracellular AK activity)” value turned out to be 1.2. The “AK-based Prestwick Library Screening Results, K. pneumoniae (fold increase in extracellular AK activity)” value in the experiment with K. pneumoniae (setting [10]) was 1.0. In addition, in the experiment with P. aeruginosa (setting [10]), the “AK-based Prestwick Library Screening Results, P. aeruginosa (fold increase in extracellular AK activity)” value is on record as 1.0. Besides, in the experiment with E. faecium (setting [10]), the “AK-based Prestwick Library Screening Results, E. faecium (fold increase in extracellular AK activity)” value turned out to be 0.9. Besides, the “AK-based Prestwick Library Screening Results, S. aureus (fold increase in extracellular AK activity)” value in experiment [2] (setting [10]) is 2.5. Besides, in the experiment with E. cloacae (setting [10]), the “AK-based Prestwick Library Screening Results, E. cloacae (fold increase in extracellular AK activity)” value worked out at 1.9.

Turning to `CCN(CC)CCNC(=O)COc1ccc(OC)cc1` [Mefexamide hydrochloride], the fold induction at 50 µM came out at 1 in experiment [1] (planktonic A. baumannii, 50 μM final drug concentration, 384-well, cutoff for positive-scoring molecules 3-fold increase, read-out: AK-based Prestwick Library Screening Results: A. baumannii (increase in extracellular AK activity)); 1.2 in the experiment with E. coli (planktonic E. coli, 50 μM final drug concentration, 384-well, cutoff for positive-scoring molecules 3-fold increase, read-out: AK-based Prestwick Library Screening Results: E. coli (increase in extracellular AK activity)); 0.9 in the experiment with K. pneumoniae (planktonic K. pneumoniae, 50 μM final drug concentration, 384-well, cutoff for positive-scoring molecules 3-fold increase, read-out: AK-based Prestwick Library Screening Results: K. pneumoniae (increase in extracellular AK activity)); 1.1 in the experiment with P. aeruginosa (planktonic P. aeruginosa, 50 μM final drug concentration, 384-well, cutoff for positive-scoring molecules 3-fold increase, read-out: AK-based Prestwick Library Screening Results: P. aeruginosa (increase in extracellular AK activity)); 1 in the experiment with E. faecium (planktonic E. faecium, 50 μM final drug concentration, 384-well, cutoff for positive-scoring molecules 3-fold increase, read-out: AK-based Prestwick Library Screening Results: E. faecium (increase in extracellular AK activity)); 0.9 in experiment [2] (planktonic S. aureus, 50 μM final drug concentration, 384-well, cutoff for positive-scoring molecules 3-fold increase, read-out: AK-based Prestwick Library Screening Results: S. aureus (increase in extracellular AK activity)). Also, in the experiment with E. cloacae (planktonic E. cloacae, 50 μM final drug concentration, 384-well, cutoff for positive-scoring molecules 3-fold increase, read-out: AK-based Prestwick Library Screening Results: E. cloacae (increase in extracellular AK activity)), the fold induction at 50 µM turned out to be 1.3.

As for `O=C1CCc2cc(OCCCCc3nnnn3C3CCCCC3)ccc2N1` [Cilostazol], the fold induction at 50 µM is 0.9 in experiment [1] (planktonic A. baumannii, 50 μM final drug concentration, cutoff for positive-scoring molecules 3-fold increase, read-out: AK-based Prestwick Library Screening Results, A. baumannii (increase in extracellular AK activity)); 0.9 in the experiment on E. coli (planktonic E. coli, 50 μM final drug concentration, cutoff for positive-scoring molecules 3-fold increase, read-out: AK-based Prestwick Library Screening Results, E. coli (increase in extracellular AK activity)); 0.7 in the experiment with K. pneumoniae (planktonic K. pneumoniae, 50 μM final drug concentration, cutoff for positive-scoring molecules 3-fold increase, read-out: AK-based Prestwick Library Screening Results, K. pneumoniae (increase in extracellular AK activity)); 0.9 with P. aeruginosa (planktonic P. aeruginosa, 50 μM final drug concentration, cutoff for positive-scoring molecules 3-fold increase, read-out: AK-based Prestwick Library Screening Results, P. aeruginosa (increase in extracellular AK activity)); 0.9 in the experiment with E. faecium (planktonic E. faecium, 50 μM final drug concentration, cutoff for positive-scoring molecules 3-fold increase, read-out: AK-based Prestwick Library Screening Results, E. faecium (increase in extracellular AK activity)); 0.8 in experiment [2] (planktonic S. aureus, 50 μM final drug concentration, cutoff for positive-scoring molecules 3-fold increase, read-out: AK-based Prestwick Library Screening Results, S. aureus (increase in extracellular AK activity)). The fold induction at 50 µM in the experiment on E. cloacae (planktonic E. cloacae, 50 μM final drug concentration, cutoff for positive-scoring molecules 3-fold increase, read-out: AK-based Prestwick Library Screening Results, E. cloacae (increase in extracellular AK activity)) was determined as 0.9.

As to `COc1ccc(C(Cl)=C(c2ccc(OC)cc2)c2ccc(OC)cc2)cc1` [Chlorotrianisene], the fold induction at 50 µM was found to be 0.8 in experiment [1] (50 μM final drug concentration, planktonic, cutoff for positive-scoring molecules 3-fold increase, read-out: AK-based Prestwick Library Screening Results, A. baumannii (fold increase in extracellular AK activity)); 0.9 in the experiment on E. coli (50 μM final drug concentration, planktonic, cutoff for positive-scoring molecules 3-fold increase, read-out: AK-based Prestwick Library Screening Results, E. coli (fold increase in extracellular AK activity)); 0.8 with K. pneumoniae (50 μM final drug concentration, planktonic, cutoff for positive-scoring molecules 3-fold increase, read-out: AK-based Prestwick Library Screening Results, K. pneumoniae (fold increase in extracellular AK activity)); 0.8 with P. aeruginosa (50 μM final drug concentration, planktonic, cutoff for positive-scoring molecules 3-fold increase, read-out: AK-based Prestwick Library Screening Results, P. aeruginosa (fold increase in extracellular AK activity)); 1 with E. faecium (50 μM final drug concentration, planktonic, cutoff for positive-scoring molecules 3-fold increase, read-out: AK-based Prestwick Library Screening Results, E. faecium (fold increase in extracellular AK activity)); 0.8 in experiment [2] (50 μM final drug concentration, planktonic, cutoff for positive-scoring molecules 3-fold increase, read-out: AK-based Prestwick Library Screening Results, S. aureus (fold increase in extracellular AK activity)). Further, the fold induction at 50 µM with E. cloacae (50 μM final drug concentration, planktonic, cutoff for positive-scoring molecules 3-fold increase, read-out: AK-based Prestwick Library Screening Results, E. cloacae (fold increase in extracellular AK activity)) came to 1.4.

For the compound `CC(=O)OCC1=C(C(=O)O)N2C(=O)[C@@H](NC(=O)Cc3cccs3)[C@H]2SC1` [Cephalothin sodium salt], the fold induction at 50 µM in experiment [1] (setting [3]) was determined as 1.1; in the experiment with E. coli (setting [4]), 11.8; with K. pneumoniae (setting [5]), 3.2; in the experiment on P. aeruginosa (setting [6]), 1.1; in the experiment on E. faecium (setting [7]) it was 1; in experiment [2] (setting [8]), 5.3. Moreover, in the experiment with E. cloacae (setting [9]), the fold induction at 50 µM was 2.
